Where a SMILES comes first, the peptide text is derived from it.
Experiments:
A. aegypti PK2-R = target: T1, A. aegypti PK2-R (Aedes aegypti, UniProt V9P4J1); test: Heterologous functional receptor assay (aequorin bioluminescence), PK2-R; format: cell-based; settings: for EC50: CHO-K1 cells transiently expressing PK2-R and aequorin, luminescence normalized to 50 μM ATP, two biological replicates, 4-8 technical replicates each, read-out: EC50, activation of A. aegypti PK2-R
T1 sequence (V9P4J1 1-638): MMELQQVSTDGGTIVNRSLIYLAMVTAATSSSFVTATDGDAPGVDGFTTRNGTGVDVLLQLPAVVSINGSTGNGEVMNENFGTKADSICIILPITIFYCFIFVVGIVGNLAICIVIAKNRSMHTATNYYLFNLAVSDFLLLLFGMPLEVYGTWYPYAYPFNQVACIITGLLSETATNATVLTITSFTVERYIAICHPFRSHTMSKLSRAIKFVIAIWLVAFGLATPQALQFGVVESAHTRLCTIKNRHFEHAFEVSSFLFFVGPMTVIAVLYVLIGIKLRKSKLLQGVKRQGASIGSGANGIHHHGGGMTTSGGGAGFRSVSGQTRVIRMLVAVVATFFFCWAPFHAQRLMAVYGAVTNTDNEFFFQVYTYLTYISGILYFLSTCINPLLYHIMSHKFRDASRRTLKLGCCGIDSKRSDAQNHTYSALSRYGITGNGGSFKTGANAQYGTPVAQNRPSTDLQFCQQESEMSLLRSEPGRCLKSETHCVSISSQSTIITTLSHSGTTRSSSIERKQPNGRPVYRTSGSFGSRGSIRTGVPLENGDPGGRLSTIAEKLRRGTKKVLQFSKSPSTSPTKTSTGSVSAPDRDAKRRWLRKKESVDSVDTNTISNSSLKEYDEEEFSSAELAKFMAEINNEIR
Text: The complete open reading frame was amplified based on the partial ([Nene et al., 2007]) and complete sequences ([Choi et al., 2013]) reported earlier for the A. aegypti PK1-R (Genbank accession: EAT35008.1) and PK2-R (Genbank accession: KC155994.1). Forward 5′-[…]-3′ (PK1-R) or 5′-[…]-3′ (PK2-R) and reverse 5′-[…]-3′ (PK1-R) or 5′-[…]-3′ (PK2-R) primers were designed over the start and stop codons (underlined), respectively, and used to amplify the complete coding sequence using Q5 High-Fidelity DNA polymerase following manufacturer recommendations (New England Biolabs, Whitby, ON). […] The resulting products were cloned into pGEM-T Easy sequencing vector, and miniprep samples were sequenced to verify base accuracy. The receptor constructs were excised using standard restriction enzyme digestion and subcloned into the mammalian expression vector, pcDNA 3.1^+ (Life Technologies, Burlington, ON, Canada). Transfection quality plasmid DNA was purified from an overnight bacterial culture using the PureLink MidiPrep Kit (Invitrogen, Burlington, ON, Canada) following manufacturer guidelines.
Chinese hamster ovary cells (CHO-K1) described previously ([Paluzzi et al., 2012]; [Gondalia et al., 2016]; [Wahedi and Paluzzi, 2018]) were grown in Dulbecco’s modified eagles medium: nutrient F12 (DMEM:F12) media containing 10% heat-inactivated fetal bovine serum (FBS; Wisent, St. Bruno, QC, Canada), 200 μg/mL geneticin, and antimycotic-antibiotic mixture as described previously ([Wahedi and Paluzzi, 2018]). […] Various concentrations of synthesized PK peptides and other peptides (purity > 90%; Genscript, Piscataway, NJ, United States) were prepared in BSA media and loaded in quadruplicate into white 96-well luminescence plates (Greiner Bio-One, Germany).
Luminescence responses to A. aegypti CAPA-1 (GPTVGLFAFPRV-NH2), CAPA-2 (pQGLVPFPRV-NH2) and CAPA-PK1 (AGNSGANSGMWFGPRL-NH2) peptides, along with the R. prolixus PK2 orthologs, PK2a (NTVNFSPRL-NH2), and PK2b (SPPFAPRL-NH2) were examined. A list of peptides used in this study and sequence comparison to native A. aegypti pyrokinin peptides is found in Supplementary Table S1. Cells prepared for the functional assay were loaded into each well of the plate using an automated injector unit and luminescent response was measured with a Synergy 2 Multi-Mode Microplate Reader (BioTek, Winooski, VT, United States). Negative controls were carried out using BSA media alone whereas 50 μM ATP, which activates endogenously expressed purinoceptors ([Iredale and Hill, 1993]; [Michel et al., 1998]), was used as a positive control. Luminescence responses were normalized to ATP responses and analyzed in GraphPad Prism 7.02 (GraphPad Software, San Diego, CA, United States). EC50 values were determined using dose-response curves from multiple biological replicates.

[1] = test system: rectal pad epithelia of female A. aegypti; test: Scanning ion-selective electrode technique (SIET), Na+ flux; parameters: species or system Aedes aegypti
Method: Female mosquitoes were anesthetized on ice for 3 min and dissected in Ca^2+-free A. aegypti saline, as described previously ([Paluzzi et al., 2014]), to limit spontaneous hindgut contractions during ion flux measurements. The isolated rectum was then transferred to a Petri dish with saline, pre-coated with poly-L-lysine ([Paluzzi et al., 2014]) to allow the tissue to adhere to the bottom of the dish.
AedaeCAPA-PK1 or D. melanogaster Droso-leucokinin (NSVVLGKKQRFHSWG-NH2, Genscript, Piscataway, NJ, United States; provided by Prof. Dick Nässel, Stockholm University, Sweden) were solubilized in double distilled water as a 1 mM stock and then diluted in the above-mentioned Ca^2+-free A. aegypti saline to achieve a 1 μM final concentration. Control measurements were obtained by applying an equal volume of saline only, referred to as saline control treatments. […]
SIET measurements were obtained through the Automated Scanning Electrode Technique (ASET) software (Science Wares, East Falmouth, MA, United States). […] Voltage gradients were measured as the microelectrode moved perpendicularly to the tissue surface between two points separated by a distance of 100 μm. […] Following background voltage readings, the ion-selective microelectrode tip was positioned at a distance of 2 μm from the rectal pad epithelia. […] Following measurements at the rectal pad sites, background voltage readings were again recorded at a distance of 3 mm away from the tissue.
Calculation of ion flux used in this study has been described previously ([Paluzzi et al., 2014]). […] The change in flux upon treatment application was calculated by subtracting flux values obtained during saline measurements, in which a positive change indicates increased ion absorption, and a negative change represents a decrease in absorption.

[2] = test system: isolated ilea of female A. aegypti; test: Ileal motility assay (video recordings); parameters: species or system Aedes aegypti; settings: Figure 7, 1 μM, RhoprMIP-7 added together with 1 μM RhoprPK2b, mean of 17 preparations
Method: Hindgut contraction assays were conducted on isolated […] of female A. aegypti. […] The isolated tissue was secured with minutien pins within a Sylgard-lined petri-dish. Given its high sequence similarity to endogenous A. aegypti PK2 peptides (Supplementary Table S1), we used the R. prolixus PK2b peptide ([Paluzzi and O'Donnell, 2012]), henceforth referred to as RhoprPK2b, for motility bioassays. Commercially synthesized peptides (Genscript, Piscataway, NJ, United States), […] ([…]) and RhoprPK2[…]), were used to examine myomodulatory activity. Serotonin (5-hydroxytryptamine, 5-HT; Sigma-Aldrich, Oakville, ON, Canada), previously shown to stimulate A. aegypti hindgut contractions ([Messer and Brown, 1995]), was used as a stimulatory control. Given the inhibitory properties of myoinhibitory peptides (having the consensus W(X6)W-NH2 carboxyl terminus) on insect hindgut motility ([Lange et al., 2012]), RhoprMIP-7 ([…]; Genscript, Piscataway, NJ, United States; [Paluzzi et al., 2015]) was used as an inhibitory control. […] Unlike the rectum, the mosquito ileum produces weaker contractions that we were unable to measure using an impedance converter as described above. […] The dissected gut was pinned in the midgut and rectum to allow the ileum to freely contract in saline and following treatments. Contractions were recorded for 2 min in saline that was used for baseline activity measurements, followed by three subsequent 2-min recordings, including: […] The RhoprPK2b was added along with the stimulatory or inhibitory compound (5-HT or RhoprMIP-7, respectively), to maintain its 1 μM concentration in the bath. […] To account for any potential changes in tissue contractile activity upon adding solutions to the bath, each of these variables were measured relative to baseline saline recordings of the same preparation as a ratio of change, where a value above or below one indicates an increase or a decrease, (respectively), in the rate, duration or length between each contraction in response to the treatment.

CC(C)C[C@H](NC(=O)[C@H](CCCNC(=N)N)NC(=O)[C@@H]1CCCN1C(=O)[C@H](C)NC(=O)[C@H](Cc1ccccc1)NC(=O)[C@@H]1CCCN1C(=O)[C@@H]1CCCN1C(=O)[C@@H](N)CO)C(N)=O [RhoprPK2b] (H-SPPFAPRL-NH2)
EC50 (A. aegypti PK2-R): 0.00854 µM

CC(C)C[C@H](NC(=O)CNC(=O)[C@@H](NC(=O)[C@@H](NC(=O)[C@@H]1CCCN1C(=O)CN)[C@@H](C)O)C(C)C)C(=O)N[C@@H](Cc1ccccc1)C(=O)N[C@@H](C)C(=O)N[C@@H](Cc1ccccc1)C(=O)N1CCC[C@H]1C(=O)N[C@@H](CCCNC(=N)N)C(=O)N[C@H](C(N)=O)C(C)C [AedaeCAPA-1] (H-GPTVGLFAFPRV-NH2)
activation of PK2-R relative to the highly potent pyrokinins (A. aegypti PK2-R; CHO-K1 cells expressing PK2-R, very high concentrations): ≤ 25%

NSVVLGKKQRFHSWG-NH2 [Droso-leucokinin, D. melanogaster kinin analog used in Na+ transport measurements]
decrease in Na+ absorption across rectal pad epithelia relative to initial transport in saline ([1]; 1 μM in Ca2+-free saline, absorptive female recta only, mean ± SEM of 10 to 14 preparations, SEM): 201.6 ± 39.0 pmol cm^–2 s^–1 | fold decrease in Na+ absorption compared to saline control ([1]; 1 μM, female rectal pad epithelia): four-fold decrease | significance of change in Na+ transport versus saline alone ([1]; 1 μM, one-way ANOVA and Tukey's post hoc test): significant

CC(C)C[C@H](NC(=O)[C@H](CCCNC(=N)N)NC(=O)[C@@H]1CCCN1C(=O)[C@H](CO)NC(=O)[C@H](Cc1ccccc1)NC(=O)[C@H](CC(N)=O)NC(=O)[C@@H](NC(=O)[C@@H](NC(=O)[C@@H](N)CC(N)=O)[C@@H](C)O)C(C)C)C(N)=O [RhoprPK2a] (H-NTVNFSPRL-NH2)
EC50 (A. aegypti PK2-R): 0.0175 µM

AWNSLHGGW-NH2 [RhoprMIP-7]
duration of each ileal contraction relative to baseline [2]: about 1.9 fold | ileal contraction frequency relative to baseline [2]: 0.38 fold | relaxation duration (length of time between ileal contractions) relative to baseline [2]: 3.9 fold

CSCC[C@H](NC(=O)CNC(=O)[C@H](CO)NC(=O)[C@H](CC(N)=O)NC(=O)[C@H](C)NC(=O)CNC(=O)[C@H](CO)NC(=O)[C@H](CC(N)=O)NC(=O)CNC(=O)[C@H](C)N)C(=O)N[C@@H](Cc1c[nH]c2ccccc12)C(=O)N[C@@H](Cc1ccccc1)C(=O)NCC(=O)N1CCC[C@H]1C(=O)N[C@@H](CCCNC(=N)N)C(=O)N[C@@H](CC(C)C)C(N)=O [AedaeCAPA-PK1] (H-AGNSGANSGMWFGPRL-NH2)
EC50 (A. aegypti PK2-R): 0.158 µM

Source: article PMC7255104, “Receptor Characterization and Functional Activity of Pyrokinins on the Hindgut in the Adult Mosquito, Aedes aegypti” (Frontiers in Physiology, 2020)
